For data set [1] the following is noted: cited from earlier work; for Toxicity: at the toxic dose range of the same line.
In data set [2] the test system is MCF-7/adr cells. Put plainly: Breast cancer clonogenic assay, MCF-7/adr. It is filed as cell-based, Human. As to conditions: for IC90: Homo sapiens, NCI/ADR-RES, absence of ketotifen, read-out: IC90 of cytotoxic drugs on MCF-7/adr, −ke. Here is the method:
MCF-7/adr cells were treated with different concentrations of reversal compounds with or without 2 μM doxorubicin for 24 hours. Cells were harvested, and plated for growth of breast cancer colonies in triplicates. […] DXN: doxorubicin.
FIG. 2 Influence of 10 μM of ketotifen on the toxicities of four cytotoxic drugs. MCF-7/adr cells were treated with different concentrations of chemotherapeutic agents in the presence or absence of 10 μM ketotifen for 24 hours. Cells were harvested, washed and plated for growth of breast cancer colonies as described in the Materials and Methods. […] Ke: ketotifen.
The toxicity of the cytotoxic drugs was measured by clonogenicity assay.
MCF-7/mx and MCF-7/vp cell lines were also used. Other cell lines could also be used. […] The MCF-7/vp cell line was selected with etoposide and overexpresses Multidrug Resistance-associated Protein gene (MRP). All the cell lines were grown routinely as monolayer culture in Dulbecco's Minimal Essential Media (DME) supplemented with L-glutamine (2 mM), penicillin, streptomycin and 10% heat-inactivated fetal bovine serum SUBS, GIBCO) in an atmosphere of 5% CO2 at 37° C. The cell lines were passaged weekly.
(§1) Both adherent and non-adherent cells were collected and washed with fresh medium. Cell aliquots (5×10^3) were plated in 1 ml of 0.3% agar over 1 ml of 0.5% agar underlayer prepared in IMDM containing 10% horse serum (GIBCO). The upper layer consisted of 20% FBS, 10 μg/ml of bovine insulin, 2.5 mg/ml of hydrocortisone, 5×10^−7M of 17-b-estradiol (Sigma) and 50 ng/ml of EGF (R & D Systems).

The subject of the next data set is MCF-7/wt. The data set can be described thus: Breast cancer clonogenic assay, MCF-7/wt. It is filed as cell-based. As to conditions: Homo sapiens, MCF7, 24 hours treatment, clonogenicity, read-out: IC90 of cytotoxic drugs on MCF-7/wt. Here is the method: (§2) The toxicity of the cytotoxic drugs was measured by clonogenicity assay. […] Beginning at 1 μM, ketotifen restored doxorubicin toxicity while at 10 μM, the MDR phenotype of MCF-7/adr cells was completely reversed. Over this concentration range, ketotifen itself is non-toxic to MCP-7/adr cells. […] As summarized in Table 3, IC90 levels on MCF-7/adr cells in the presence of ketotifen are almost identical to those for parental MCF-7 cells. […] Thus, ketotifen is a specific reversing agent for MDR associated with P-gp.
MCF-7 (MCF-7/wt) and its multidrug resistant variant MCF-7/adr cells were used. MCF-7/mx and MCF-7/vp cell lines were also used. Other cell lines could also be used. […] The MCF-7/vp cell line was selected with etoposide and overexpresses Multidrug Resistance-associated Protein gene (MRP). All the cell lines were grown routinely as monolayer culture in Dulbecco's Minimal Essential Media (DME) supplemented with L-glutamine (2 mM), penicillin, streptomycin and 10% heat-inactivated fetal bovine serum SUBS, GIBCO) in an atmosphere of 5% CO2 at 37° C. The cell lines were passaged weekly.
as §1, with “Exponentially growing MCF-7/wt and its three mutants MCF-7/adr, MCF-7/mx and MCF-7/vp were trypsinized, washed with fresh medium and plated in 6-well plates at a density of 1×10^5/ml. […] Both” for “Both”, “Systems). Colonies larger than 50 μm in size were scored after 14 days of incubation at 37° C. in a humidified atmosphere of 5% CO2 in air.” for “Systems).”

Data set [3] in a line: Modulation of doxorubicin toxicity: survival. As to conditions: doxorubicin 15 mg/kg i.p., alone or after labelled reversal agent 25 mg/kg i.p. The source says:
Female Balb/c mice (8-10 weeks of age, 20-22 g of body weight) were purchased from Jackson Laboratory (Maine, USA). Protocols were approved by the Animal Care Committee of the University Health Network. […] All the treatments were administrated via i.p. After treatment, mice were kept in sterile environment for six to eight weeks. […] Three mice from each group were sacrificed on day 4-post treatment. Hearts were removed immediately and fixed in 10% neutral buffered formalin. Tissue sections were made from heart tissue and stained with hematoxylin and eosin or with 1% Toluidine blue to identify mast cells. All the slides were evaluated by light microscopy for cardiac damage, mast cell density and degranulation.
All the colony data were analyzed by two-way analysis of variance (ANOVA), with differences between individual means determined by Bonferroni's post-tests. Data were expressed as means ±SEM. The Kaplan-Meier estimate was used to determine differences in the survival periods for mice following different drug combination treatments.

Data set [4] has as its system MCF-7/adr cells. The data set can be described thus: Breast cancer clonogenic assay, MCF-7/adr. It is filed as cell-based. The note with it: Homo sapiens, NCI/ADR-RES, presence of 10 mM of ketotifen (so in the source), read-out: IC90 of cytotoxic drugs on MCF-7/adr, +ke.
The target in the next data set is P-gp (Homo sapiens, UniProt P08183). As to conditions: 2.5 h, 2 μM.
For the next data set, the system named is MCF-7/vp cells. The data set can be described thus: Breast cancer clonogenic assay, MCF-7/vp (MRP overexpressing). The data set is classed as cell-based, Human. Here is the method:
(§3) FIG. 3 Ketotifen fails to reverse MDR of MCF-7/mx and MCF-7/vp cell lines. MCF-7/mx and MCF-7/vp cell lines were treated and assayed as described in FIGS. 1 and 2. […] Ke: ketotifen.
as §2
(§4) MCF-7 (MCF-7/wt) and its multidrug resistant variant MCF-7/adr cells were used. MCF-7/mx and MCF-7/vp cell lines were also used. Other cell lines could also be used. […] The MCF-7/vp cell line was selected with etoposide and overexpresses Multidrug Resistance-associated Protein gene (MRP). […]
(§5) Exponentially growing MCF-7/wt and its three mutants MCF-7/adr, MCF-7/mx and MCF-7/vp were trypsinized, washed with fresh medium and plated in 6-well plates at a density of 1×10^5/ml. […] Colonies larger than 50 μm in size were scored after 14 days of incubation at 37° C. in a humidified atmosphere of 5% CO2 in air.

For data set [5], the system named is P388/adr murine leukemia cells. The data set can be described thus: p388 multi-drug resistant leukemia model. The data set is classed as in vivo, Mice. As to conditions: ketotifen 75 mg/kg i.p. 30 minutes before doxorubicin 4 mg/kg i.p., once per week.
In the next data set the test system is MCF-7/mx. The data set can be described thus: Breast cancer clonogenic assay, MCF-7/mx (BCRP overexpressing). The data set is classed as cell-based, Human. The procedure: as §3, §2, §4, §5
[6] abbreviates: with 2 μM doxorubicin, 24 hours.

We go through 14 compounds from patent US20060252714A1, “Pharmaceutical compositions and methods for treating multidrug resistant cancer” (priority 2003, published 2006).

Molecules are shown by their SMILES. Where a name gives a salt, the structure may show the parent alone. Read-outs that look alike come from different tables or passages of the source. Bounds are passed on as bounds.

Sequence of P-gp (P08183 whole entry): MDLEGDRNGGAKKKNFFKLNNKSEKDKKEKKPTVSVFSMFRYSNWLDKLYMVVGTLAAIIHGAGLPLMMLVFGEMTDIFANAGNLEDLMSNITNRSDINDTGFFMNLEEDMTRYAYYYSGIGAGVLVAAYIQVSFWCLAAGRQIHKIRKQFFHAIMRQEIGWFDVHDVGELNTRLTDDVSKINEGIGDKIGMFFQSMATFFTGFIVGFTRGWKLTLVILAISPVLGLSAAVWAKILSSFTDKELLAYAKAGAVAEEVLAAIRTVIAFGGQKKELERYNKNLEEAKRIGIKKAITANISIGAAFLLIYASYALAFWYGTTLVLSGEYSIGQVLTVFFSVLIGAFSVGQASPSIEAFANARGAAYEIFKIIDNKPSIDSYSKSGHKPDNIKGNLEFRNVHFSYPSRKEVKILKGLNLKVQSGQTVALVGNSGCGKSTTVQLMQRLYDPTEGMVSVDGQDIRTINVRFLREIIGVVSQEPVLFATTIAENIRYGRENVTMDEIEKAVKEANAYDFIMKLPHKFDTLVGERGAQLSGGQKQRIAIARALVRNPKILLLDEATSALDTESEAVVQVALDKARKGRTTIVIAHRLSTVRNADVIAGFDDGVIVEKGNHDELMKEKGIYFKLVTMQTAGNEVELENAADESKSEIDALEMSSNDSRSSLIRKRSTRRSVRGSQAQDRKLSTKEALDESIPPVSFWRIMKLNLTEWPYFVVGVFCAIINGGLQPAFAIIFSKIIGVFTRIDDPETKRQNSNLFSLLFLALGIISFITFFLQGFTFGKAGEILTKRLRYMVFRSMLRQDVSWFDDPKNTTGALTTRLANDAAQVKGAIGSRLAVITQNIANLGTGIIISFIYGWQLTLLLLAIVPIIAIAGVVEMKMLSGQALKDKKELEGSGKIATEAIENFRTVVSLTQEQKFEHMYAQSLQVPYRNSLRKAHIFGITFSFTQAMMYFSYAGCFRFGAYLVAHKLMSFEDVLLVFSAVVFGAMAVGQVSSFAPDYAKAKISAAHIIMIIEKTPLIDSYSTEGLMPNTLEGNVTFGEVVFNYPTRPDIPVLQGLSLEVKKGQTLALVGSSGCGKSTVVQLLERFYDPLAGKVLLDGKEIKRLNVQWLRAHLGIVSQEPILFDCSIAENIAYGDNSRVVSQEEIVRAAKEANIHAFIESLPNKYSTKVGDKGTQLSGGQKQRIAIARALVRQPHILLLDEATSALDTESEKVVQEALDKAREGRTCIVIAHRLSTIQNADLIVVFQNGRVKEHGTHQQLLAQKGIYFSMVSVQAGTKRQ

For `COc1cc(NS(C)(=O)=O)ccc1Nc1c2ccccc2nc2ccccc12` [Amsacrine], in data set [1], the Toxicity result is given as “Ventricular arrhythmia”.

In the case of `CS(=O)(=O)OCCCCOS(C)(=O)=O` [Bisulfan], in data set [1] (IV unless otherwise indicated), the “Toxic dose range” value is on record as “Oral daily dose”. The Toxicity result in data set [1] is reported as “Endocardial fibrosis”.

Take `O=P1(N(CCCl)CCCl)NCCCO1` (centres unmarked) [Cyclophosphamide]: in [1] (over 2 d, IV), the Toxic dose range is above 100 to 120 mg/kg.

With `COc1cccc2c1C(=O)c1c(O)c3c(c(O)c1C2=O)C[C@@](O)(C(C)=O)C[C@@H]3O[C@H]1C[C@H](N)[C@H](O)[C@H](C)O1` [Daunorubicin], the Toxicity result in data set [1] is “Same toxocity as doxorubicin”. The Toxic dose range in data set [1] (total dose, IV) is given as above 550 mg/m^2.

Consider `COc1cccc2c1C(=O)c1c(O)c3c(c(O)c1C2=O)C[C@@](O)(C(=O)CO)C[C@@H]3O[C@H]1C[C@H](N)[C@H](O)[C@H](C)O1` [Doxorubicin, 8S,10S)-10-[(3-amino-2,3,6-trideoxy-a-L-lyxo-hexopyranosyl)oxy]-8-glycolyl-7,8,9,10-tetrahydro-6,8,11-trihydroxy-1-methoxy-5,12-naphthacenedione hydrochloride], for which the IC90 in the data set on MCF-7/adr cells [2] was above 10000 nM; with MCF-7/wt, 120 nM; with MCF-7/adr cells [4], 180 nM. Moreover, in data set [3], the median survival time came to 19.3 days. In data set [3], the “survival rate at day 30” value is on record as 42%.

On to `O=c1[nH]cc(F)c(=O)[nH]1` [Fluorouracil], for which the Toxicity entry in data set [1] is on record as “Angina/myocardial infarction”.

Regarding `CO[C@@]12[C@H](COC(N)=O)C3=C(C(=O)C(C)=C(N)C3=O)N1C[C@@H]1N[C@@H]12` [Mitomycin], the “Toxic dose range” value in [1] (IV unless otherwise indicated) was “Conventional dose”.

Consider `O=C1c2c(O)ccc(O)c2C(=O)c2c(NCCNCCO)ccc(NCCNCCO)c21` [Mitoxantrone], for which the IC90 in the data set on MCF-7/adr cells [2] worked out at 220 nM; in the data set on MCF-7/wt, 10 nM; in the data set on MCF-7/adr cells [4] it was 20 nM.

As for `CC(=O)O[C@H]1C(=O)[C@@]2(C)[C@H]([C@H](OC(=O)c3ccccc3)[C@]3(O)C[C@H](OC(=O)[C@H](O)[C@@H](NC(=O)c4ccccc4)c4ccccc4)C(C)=C1C3(C)C)[C@]1(OC(C)=O)CO[C@@H]1C[C@@H]2O` [Paclitaxel], in data set [1], the Toxicity entry is listed as “Bradycardia”.

`COc1cc([C@@H]2c3cc4c(cc3[C@@H](O[C@@H]3O[C@@H]5CO[C@@H](C)O[C@H]5[C@H](O)[C@H]3O)[C@H]3COC(=O)[C@H]23)OCO4)cc(OC)c1O` [VP-16, etoposide]: the IC90 stood at 220000 nM in the data set on MCF-7/adr cells [2], 17000 nM in the data set on MCF-7/wt and 20000 nM in the data set on MCF-7/adr cells [4].

Regarding `CC[C@]1(O)C[C@@H]2CN(CCc3c([nH]c4ccccc34)[C@@](C(=O)OC)(c3cc4c(cc3OC)N(C)[C@H]3[C@@](O)(C(=O)OC)[C@H](OC(C)=O)[C@]5(CC)C=CCN6CC[C@]43[C@@H]65)C2)C1` [Vinblastine], the figures for the IC90 in the data set with MCF-7/adr cells [2], in the data set with MCF-7/wt and in the data set with MCF-7/adr cells [4] were 410000 nM, 800 nM and 1200 nM, respectively.

For the compound `CC[C@]1(O)C[C@H]2CN(CCc3c([nH]c4ccccc34)[C@@](C(=O)OC)(c3cc4c(cc3OC)N(C=O)[C@H]3[C@@](O)(C(=O)OC)[C@H](OC(C)=O)[C@]5(CC)C=CCN6CC[C@]43[C@@H]65)C2)C1` [Vincristine], the “Toxic dose range” value in [1] (IV unless otherwise indicated) is given as “Conventional dose”. Also, the Toxicity result in data set [1] was “Myocardial Infarction”.

Consider `CN1CCC(=C2c3ccccc3CC(=O)c3sccc32)CC1.O=C(O)/C=C/C(=O)O` [ketotifen, 4-(1-Methyl-4-piperidylidene)-4H-benzo[4,5]cyclohepta[1,2-b] thiophen-10(9H)-one hydrogen fumarate], for which the “sensitivity to mitoxantrone, VP-16 and vinblastine” value with MCF-7/adr cells [2] (10 μM ketotifen) is reported as “restored”. Moreover, the “reversal of doxorubicin resistance” value with MCF-7/adr cells [2] (ketotifen compared with verapamil) is given as “reverse resistance at similar concentrations”. Further, in the data set with MCF-7/adr cells [2] (over 1 to 10 μM, without doxorubicin), the “toxicity of ketotifen itself” value is listed as “non-toxic”. For the same compound, in the data set on MCF-7/adr cells [2] (setting [6]), the “ketotifen concentration at which MDR phenotype was completely reversed” value is 10 µM and the “ketotifen concentration from which doxorubicin toxicity is restored” value was at least 1 µM. For the same compound, the “increase of doxorubicin relative fluorescence” value on P-gp was found to be 50%. Besides, the “influence on toxicity of VP-16” value in the data set with MCF-7/vp cells is given as “influenced neither”. For the same compound, the “extension of survival compared to doxorubicin alone” value in [5] worked out at 2 days. In addition, in [3], the median survival time is recorded as 23.2 days and the “survival rate at day 30” value is 57%. In addition, the “influence on toxicity of mitoxantrone” value in the data set with MCF-7/mx was “influenced neither”.

Turning to `COc1ccc(CCN(C)CCCC(C#N)(c2ccc(OC)c(OC)c2)C(C)C)cc1OC` (centres unmarked) [verapamil], in data set [3], the median survival time was determined as 12.3 days and the “survival rate at day 30” value is on record as 0%.
